This passage reports viability, T/C and IC50 results from PubChem BioAssay AID1963842 (Molecular Pharmacology Branch, DTP, NCI, 2024).

The experiment has as its system 677734-321-R-J1-PDC complex spheroid viability. Description: Anticancer human tumor 677734-321-R-J1-PDC patient-derived soft tissue sarcoma cell line growth inhibition [POLQ]. The note with it: for viability, T/C: stronger effect = lower value. How it is done: Multicellular complex tumor spheroid response to Polymerase (POL) inhibitors (novobiocin, ART-558, RP6685) in combination with a variety of drugs and investigational agents in selected tumor cell lines
The POL inhibitors (novobiocin, ART-558, and RP6685) were evaluated both individually and in combination with standard of care and investigational anticancer small molecules within a complex spheroid model of solid tumors. . Complex spheroids include a stromal component modeled by human endothelial cells (HUVEC) and fibroblasts modeled by human mesenchymal stem cells (MSCs). The concentration ranges selected for each drug and investigational agent were based upon clinically achievable concentrations if the clinical Cmax of the agent was known.
Compounds. The drugs and investigational agents: novobiocin (NSC847541), ART-558 (NSC835418), RP-6685 (NSC848927), peposertib (NSC802822), ceralasertib (NSC780249), elimusertib (NSC800525), camonsertib (NSC841442), AZD-1390 (NSC803789), olaparib (NSC753686), talazoparib (NSC767125), rucaparib (NSC756644), sotorasib (NSC818433), MRTX-1133 (NSC836407), SN-38 (NSC673596), topotecan (NSC609699), epotoside (NSC141540), doxorubicin (NSC123127), gemcitabine (NSC613327), 5-fluorouracil (NSC19893), paclitaxel (NSC125973), vemurafenib (NSC761431), MSA-2 (NSC828583), SN-011 (NSC837082), adavosertib (NSC754352), prexasertib (NSC758257), carboplatin (NSC241240) and oxaliplatin (NSC266046), were obtained from the National Cancer Institute (NCI) Developmental Therapeutics Program Chemical Repository (21). The FDA-approved anticancer drug set is available from the Developmental Therapeutics Program at https://dtp.cancer.gov/organization/dscb/obtaining/. […] The stock solutions were prepared in dimethyl sulfoxide (DMSO, Sigma-Aldrich, St. Louis, MO, cat. D2650), except for the platinum compounds which were prepared in saline (Quality Biological, Gaithersburg, MD, cat. 114-055-101), at 800-fold the tested concentration and stored at -70 degrees C prior to their use. All drugs and investigational agents were tested over a range starting from a high concentration at or near the clinical Cmax and decreasing in half-log increments. If the clinical Cmax for an agent had not been determined, the highest concentration tested was 10 microM, except for SN-38, which was tested at a high concentration of 1 microM.
Cell Culture. All cells were maintained in an incubator at 37 degrees C and 5% CO2 with 95% humidity. The PDC lines were cultured according to standard operating procedures established by the NCI PDMR (https://pdmr.cancer.gov). Table 3 of the manuscript, lists the cell lines along with the number of the three cell types plated to form the mct-spheroids and media for tumor cell growth. After thawing, all PDC lines, except 997537-175-T-J1-PDC and 415267-285-R-J2-PDC, were cultured in Matrigel-coated flasks prepared with a working solution of 1X Ham's F-12 nutrient mix, without supplementation (Thermo Fisher Scientific, cat. 11765054), 100 U/mL penicillin-streptomycin (Thermo Fisher Scientific, cat. 15140122), and 2.5% Matrigel (Corning Inc., Corning, NY, cat. 354248) for the first three passages. The two PDC lines 997537-175-T-J1-PDC and 415267-285-R-J2-PDC were cultured on uncoated flasks. The 857933-349-R-J2-PDC line was cultured in 6C/Colon 1B media containing advanced DMEM/F-12 (Thermo Fisher Scientific, cat. 12634028), 10 mM HEPES (Thermo Fisher Scientific, cat. 15630080), 1X GlutaMAX supplement (Thermo Fisher Scientific, cat. 35050061), 0.1 mg/mL primocin (InvivoGen, San Diego, CA, cat. ant-pm-2), 10% defined fetal bovine serum, heat inactivated (HyClone Laboratories Inc., Logan, UT, cat. SH30070.03HI), 50% L-WRN conditioned media (ATCC, cat. CRL-3276), 1.25 mM N-Acetyl-L-cysteine (Sigma-Aldrich, cat. A9165), 10 mM nicotinamide (Sigma-Aldrich, cat. N0636), 1X B-27 supplement (Thermo Fisher Scientific, cat. 17504044), 1X N-2 supplement (Thermo Fisher Scientific, cat. […]

Setting [1] is: curve of first compound, second compound 0.0316 µM.
[2] abbreviates: curve of first compound, second compound 0.1 µM.
Where [3] appears, read: curve of first compound, second compound 0.316 µM.
The mark [4] stands for this setting: curve of first compound, second compound 1 µM.
Where [5] appears, read: curve of first compound, second compound 3.16 µM.
[6] abbreviates: curve of first compound, second compound 10 µM.
Where [7] appears, read: second compound 0.0316 µM, first compound 0.0316 µM.
[8] abbreviates: second compound 0.0316 µM, first compound 0.1 µM.
Where [9] appears, read: second compound 0.0316 µM, first compound 0.316 µM.
Where [10] appears, read: second compound 0.0316 µM, first compound 1 µM.
Where [11] appears, read: second compound 0.0316 µM, first compound 3.16 µM.
Where [12] appears, read: second compound 0.0316 µM, first compound 10 µM.
The mark [13] stands for this setting: second compound 0.1 µM, first compound 0.0316 µM.
Setting [14] is: second compound 0.1 µM, first compound 0.1 µM.
Setting [15] is: second compound 0.1 µM, first compound 0.316 µM.
[16] abbreviates: second compound 0.1 µM, first compound 1 µM.
[17] abbreviates: second compound 0.1 µM, first compound 3.16 µM.
Setting [18] is: second compound 0.1 µM, first compound 10 µM.
[19] abbreviates: second compound 0.316 µM, first compound 0.0316 µM.
Setting [20] is: second compound 0.316 µM, first compound 0.1 µM.
Setting [21] is: second compound 0.316 µM, first compound 0.316 µM.
[22] abbreviates: second compound 0.316 µM, first compound 1 µM.
The mark [23] stands for this setting: second compound 0.316 µM, first compound 3.16 µM.
The mark [24] stands for this setting: second compound 0.316 µM, first compound 10 µM.
Where [25] appears, read: second compound 1 µM, first compound 0.0316 µM.
[26] abbreviates: second compound 1 µM, first compound 0.1 µM.
Setting [27] is: second compound 1 µM, first compound 0.316 µM.
Where [28] appears, read: second compound 1 µM, first compound 1 µM.
[29] abbreviates: second compound 1 µM, first compound 3.16 µM.
Where [30] appears, read: second compound 1 µM, first compound 10 µM.
The mark [31] stands for this setting: second compound 3.16 µM, first compound 0.0316 µM.
[32] abbreviates: second compound 3.16 µM, first compound 0.1 µM.
The mark [33] stands for this setting: second compound 3.16 µM, first compound 0.316 µM.
Setting [34] is: second compound 3.16 µM, first compound 1 µM.
The mark [35] stands for this setting: second compound 3.16 µM, first compound 3.16 µM.
The mark [36] stands for this setting: second compound 3.16 µM, first compound 10 µM.
Where [37] appears, read: second compound 10 µM, first compound 0.0316 µM.
The mark [38] stands for this setting: second compound 10 µM, first compound 0.1 µM.
The mark [39] stands for this setting: second compound 10 µM, first compound 0.316 µM.
[40] abbreviates: second compound 10 µM, first compound 1 µM.
Setting [41] is: second compound 10 µM, first compound 3.16 µM.
Where [42] appears, read: second compound 10 µM, first compound 10 µM.

As a reminder, the viability, T/C is the result in the treated group divided by that in the control group, in per cent. What is called IC50 is the concentration needed to halve the response being measured.

Where “and” joins values, the source holds several entries; their conditions need not be identical. Identical values can stand only once. Bounds are passed on as bounds.
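Also: spheroids exposed to compounds for one week.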

Regarding `CCCS(=O)(=O)Nc1ccc(F)c(C(=O)c2c[nH]c3ncc(-c4ccc(Cl)cc4)cc23)c1F`, the viability, T/C was 109% and 98.3% and 104% (compound 0.0316 µM); 98% (2×) and 103% (compound 0.1 µM); 90.9% and 101% and 108% (compound 0.316 µM); 97.4% and 115% and 111% (compound 1 µM); 71.8% and 98.3% and 112% (compound 3.16 µM); 4.28% and 6.33% and 14.5% (compound 10 µM). Moreover, the IC50 (curve of compound) was 4.61 µM and 5.8 µM and 6.45 µM.

As for `CCCS(=O)(=O)Nc1ccc(F)c(C(=O)c2c[nH]c3ncc(-c4ccc(Cl)cc4)cc23)c1F` + Nc1ccc(C#CCN(C(=O)Cc2ncc(C(F)(F)F)cc2C(F)(F)F)c2ccc(F)cc2)nn1, the IC50 under setting [1] stood at 5.07 µM; the half-maximal inhibitory concentration (IC50) under setting [2] worked out at 5.35 µM; the IC50 under setting [3] is 5.46 µM; the IC50 under setting [4] was 4.5 µM; the IC50 under setting [5] came to 4.29 µM; the half-inhibitory concentration (IC50) under setting [6] was 4.7 µM. Moreover, the viability, T/C is 96.6% under setting [7]; 106% under setting [8]; 97.2% under setting [9]; 104% under setting [10]; 80% under setting [11]; 7% under setting [12]. Also, the viability, T/C is, setting by setting: under setting [13], 107%; under setting [14], 109%; under setting [15], 87.5%; under setting [16], 98.9%; under setting [17], 86.8%; under setting [18], 6.32%. Besides, the viability, T/C was 99% under setting [19]; 101% under setting [20]; 102% under setting [21]; 108% under setting [22]; 87.9% under setting [23]; 7.94% under setting [24]. Besides, the viability, T/C was 107% under setting [25]; 103% under setting [26]; 107% under setting [27]; 98.6% under setting [28]; 68% under setting [29]; 9.46% under setting [30]. The viability, T/C is, setting by setting: under setting [31], 121%; under setting [32], 110%; under setting [33], 102%; under setting [34], 96.6%; under setting [35], 67.2%; under setting [36], 5.17%. The viability, T/C is 96.8% under setting [37]; 105% under setting [38]; 96.1% under setting [39]; 113% under setting [40]; 73.2% under setting [41]; 5.45% under setting [42].

For the compound `C#Cc1c(F)ccc2cc(O)cc(-c3ncc4c(N5CC6CCC(C5)N6)nc(OCC56CCCN5CC(F)C6)nc4c3F)c12` (stereo not given), the viability, T/C is, setting by setting: (compound 0.0316 µM) 109% and 110% and 105%; (compound 0.1 µM) 105% and 104% and 101%; (compound 0.316 µM) 99.2% and 115% and 96.7%; (compound 1 µM) 105% and 96.8% and 101%; (compound 3.16 µM) 107% and 113% and 97.8%; (compound 10 µM) 102% (2×) and 80.7%. Moreover, under “curve of compound”, the IC50 is over 10 µM.

On to `C=CC(=O)N1CCN(c2nc(=O)n(-c3c(C)ccnc3C(C)C)c3nc(-c4c(O)cccc4F)c(F)cc23)C(C)C1` (stereo not given) + Nc1ccc(C#CCN(C(=O)Cc2ncc(C(F)(F)F)cc2C(F)(F)F)c2ccc(F)cc2)nn1, for which the IC50 under setting [1] was over 10 µM; the IC50 under setting [2] was over 10 µM; the IC50 under setting [3] was over 10 µM; the IC50 under setting [4] is over 10 µM; the IC50 under setting [5] was over 10 µM; the half-maximal inhibitory concentration (IC50) under setting [6] was determined as 9.87 µM. Also, the viability, T/C was 114% under setting [7]; 116% under setting [8]; 101% under setting [9]; 101% under setting [10]; 89.2% under setting [11]; 74.4% under setting [12]. For the same compound, the viability, T/C was 107% under setting [13]; 104% under setting [14]; 93.7% under setting [15]; 118% under setting [16]; 82.7% under setting [17]; 63.5% under setting [18]. Also, the viability, T/C is, setting by setting: under setting [19], 94.4%; under setting [20], 94.9%; under setting [21], 101%; under setting [22], 109%; under setting [23], 86.9%; under setting [24], 69.4%. In addition, the viability, T/C by setting is: under setting [25], 112%; under setting [26], 96.6%; under setting [27], 92.4%; under setting [28], 103%; under setting [29], 104%; under setting [30], 52.4%. Also, the viability, T/C under setting [31] was 107%; the viability, T/C under setting [32] is 106%; the viability, T/C under setting [33] is 111%; the viability, T/C under setting [34] is 102%; the viability, T/C under setting [35] was 103%; the viability, T/C under setting [36] is 56.6%. The viability, T/C under setting [37] is 136%; the viability, T/C under setting [38] is 99.3%; the viability, T/C under setting [39] was 107%; the viability, T/C under setting [40] was 111%; the viability, T/C under setting [41] was 85.4%; the viability, T/C under setting [42] is 48.7%.

Turning to `COc1cccc(OCCCN)c1-c1cc(Nc2cnc(C#N)cn2)n[nH]1`, the viability, T/C reads like this: (compound 0.00316 µM) 96.4% and 60.4% and 103%; (compound 0.01 µM) 35.5% and 11.5% and 11.2%; (compound 0.0316 µM) 13.8% and 5.42% and 7.19%; (compound 0.1 µM) 8.96% and 5.9% and 8.69%; (compound 0.316 µM) 11% and 6.62% and 7.27%; (compound 1 µM) 10.3% and 5.14% and 6.13%. In addition, under “curve of compound”, the concentration for half-maximal inhibition (IC50) is 0.00761 µM and 0.00404 µM and 0.00615 µM.
